In US11209437B2, “Fluorescent probe and preparation method and use thereof” (Fluorescence Diagnosis (shanghai) Biotech Company Ltd., priority 2016, dated 2021):

How the values were obtained:
[1] = Viscosity responsiveness: fluorescence emission spectra of probes in glycerol and methanol; format: physicochemical; conditions: for Emission wavelength: excited at maximum excitation wavelength of each probe; for Fluorescence ratio in glycerol to methanol: probe 1×10^−5 M
Description: Probes 1 to 98, 101, 103, 105, 107, 109, 111, 114, 117, and 120, and the reference probes 99, 100, 102, 104, 106, 108, 110, 112, 113, 115, 116, 118, 119, 121, BG-CCVJ and BG-Gly-CCVJ were dissolved in dimethyl sulfoxide, respectively, to prepare mother liquors having a concentration of 1×10^−2 M, to each of which glycerol and methanol were added and uniformly mixed, to prepare solutions finally having a concentration of 1×10^−5 M. Depending on the probes, fluorescence emission spectra of the probes were detected successively with the maximum excitation wavelength of each probe under the same conditions, and the results were shown in Table 1.
That is, these probes are sensitive to viscosity changes and have viscosity responsiveness.

[2] = Fluorescence of free probe prior to binding to a protein tag; format: physicochemical
Description: (§1) Probes were mixed with corresponding protein tags to obtain mixed samples, in which the final probe concentration was 5 μM, and the final protein tag concentration was 10 μM. The mixed samples were incubated 37° C. for 1 hr, fluorescence spectrophotometer was used to detect the change in fluorescence intensity, and the results are shown in Table 1.
(§2) From the quantum yield of probe bound to protein tag, after reacting with the protein tags, the probes of the Examples could be detected to have significant signal enhancement in corresponding excitation transmission channels, the fluorescence activation multiple reached several hundreds to a thousand or more, and the brightness was high, which illustrates that after the probes of the Examples are bound to the protein tags, fluorescence of the probes can be activated, and the probes have good fluorescent molecular switching properties. In contrast, though the fluorescence of the reference probes could also be activated, the quantum yield of activated fluorescence was very low, and the brightness was very poor. In particular, in view of comparison results between probe 98 and reference probe 99, probe 101 and reference probe 102, probe 103 and reference probe 104, probe 105 and reference probe 106, probe 107 and reference probe 108, probe 109 and reference probe 110, probe 111 and reference probe 112, probe 114 and reference probe 115, probe 117 and reference probe 118, probe 120 and reference probe 121 in Table 1, for the same fluorescent dye, when the ligand is connected to the electron donor part of the fluorescent dye, the fluorescence activation brightness of the probe is much higher than the reference probe in which ligand is connected to the electron acceptor part of the fluorescent dye.

[3] = biological target: T1, SNAP protein tags (Homo sapiens, UniProt P16455, A127T/A154D/C150Q/C62A/E30R/G131K/G132T/G153L/K125A/K32I/L33F/M134L/N157G/Q115S/Q116H/R128A/R135S/S151G/S152D/S159E); assay: Fluorescence activation of probe after incubation with corresponding protein tag (SNAP); format: biochemical; conditions: probe 5 μM, protein tag 10 μM, 37° C., 1 hr
T1 sequence (P16455 1-182 E30R/K32I/L33F/C62A/Q115S/Q116H/K125A/A127T/R128A/G131K/G132T/M134L/R135S/C150Q/S151G/S152D/G153L/A154D/N157G/S159E): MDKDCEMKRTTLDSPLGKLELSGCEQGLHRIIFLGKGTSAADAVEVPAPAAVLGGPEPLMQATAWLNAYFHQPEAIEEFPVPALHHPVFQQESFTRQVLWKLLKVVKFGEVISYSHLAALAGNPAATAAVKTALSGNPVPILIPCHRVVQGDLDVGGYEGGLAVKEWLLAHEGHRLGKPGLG
Description: as §1, §2

Row | Emission wavelength [1] [nm] | Fluorescence ratio in glycerol to methanol [1] | Quantum yield of free probe [2] | Fluorescence activation multiple [3] | Quantum yield of probe bound to protein tag [3] | Structure (SMILES)
1 | 649 | 129 | <0.001 | 53 | 0.01 | CN(CCO)c1cc2c(s1)-c1sc(/C=C(/C#N)C(=O)NCc3ccc(COc4nc(N)nc5[nH]cnc45)cc3)cc1C2(C)C [Reference Probe 99, reference compound]
2 | 480 | 213 | <0.001 | 43 | 0.011 | CN(C)c1ccc(/C=C(\C#N)C(=O)NCc2ccc(COc3nc(N)nc4[nH]cnc34)cc2)cc1 [Reference Probe 100, reference compound]
3 | 480 | 212 | <0.001 | 31 | 0.02 | CN(CCO)c1ccc(/C=C(\C#N)C(=O)NCc2ccc(COc3nc(N)nc4[nH]cnc34)cc2)cc1 [Reference Probe 102, reference compound]
4 | 515 | 351 | <0.001 | 23 | 0.02 | N#C/C(=C\c1ccc2c(c1)SCCN2CCO)C(=O)NCc1ccc(COc2nc(N)nc3[nH]cnc23)cc1 [Reference Probe 104, reference compound]
5 | 555 | 215 | <0.001 | 62 | 0.01 | CC1=CC(C)(C)N(CCO)c2ccc(/C=C(\C#N)C(=O)NCc3ccc(COc4nc(N)nc5[nH]cnc45)cc3)cc21 [Reference Probe 106, reference compound]
6 | 555 | 329 | <0.001 | 30 | 0.02 | CN(CCO)c1cc2sc(/C=C(\C#N)C(=O)NCc3ccc(COc4nc(N)nc5[nH]cnc45)cc3)cc2s1 [Reference Probe 108, reference compound]
7 | 567 | 218 | <0.001 | 23 | 0.01 | CN(CCO)c1ccc(C#C/C=C(\C#N)C(=O)NCc2ccc(COc3nc(N)nc4[nH]cnc34)cc2)cc1 [Reference Probe 110, reference compound]
8 | 570 | 211 | <0.001 | 41 | 0.01 | CN(CCO)c1ccc2cc(/C=C(\C#N)C(=O)NCc3ccc(COc4nc(N)nc5[nH]cnc45)cc3)sc2c1 [Reference Probe 112, reference compound]
9 | 625 | 129 | <0.001 | 36 | 0.01 | CN(C)c1ccc2nc(/C=C(\C#N)C(=O)NCc3ccc(COc4nc(N)nc5[nH]cnc45)cc3)sc2c1 [Reference Probe 113, reference compound]
10 | 625 | 113 | <0.001 | 38 | 0.01 | CN(CCO)c1ccc2nc(/C=C(\C#N)C(=O)NCc3ccc(COc4nc(N)nc5[nH]cnc45)cc3)sc2c1 [Reference Probe 115, reference compound]
11 | 620 | 125 | <0.001 | 29 | 0.01 | CN(C)c1ccc(-c2ccc(/C=C(\C#N)C(=O)NCc3ccc(COc4nc(N)nc5[nH]cnc45)cc3)s2)cc1 [Reference Probe 116, reference compound]
12 | 621 | 158 | <0.001 | 29 | 0.02 | CN(CCO)c1ccc(-c2ccc(/C=C(\C#N)C(=O)NCc3ccc(COc4nc(N)nc5[nH]cnc45)cc3)s2)cc1 [Reference Probe 118, reference compound]
13 | 655 | 362 | <0.001 | 15 | 0.01 | CN(C)c1ccc(-c2ccc(/C=C(\C#N)C(=O)NCc3ccc(COc4nc(N)nc5[nH]cnc45)cc3)s2)s1 [Reference Probe 119, reference compound]
14 | 655 | 219 | <0.001 | 39 | 0.01 | CN(CCO)c1ccc(-c2ccc(/C=C(\C#N)C(=O)NCc3ccc(COc4nc(N)nc5[nH]cnc45)cc3)s2)s1 [Reference Probe 121, reference compound]
15 | 501 | 260 | <0.001 | 170 | 0.02 | N#C/C(=C\c1cc2c3c(c1)CCCN3CCC2)C(=O)NCc1ccc(COc2nc(N)nc3[nH]cnc23)cc1 [Reference Probe BG-CCVJ, reference compound]
16 | – | 260 | <0.001 | 60 | – | N#C/C(=C\c1cc2c3c(c1)CCCN3CCC2)C(=O)NCC(=O)NCc1ccc(COc2nc(N)nc3[nH]cnc23)cc1 [Reference Probe BG-Gly-CCVJ, reference compound]
17 | 510 | 410 | 0.001 | 146 | 0.15 | CN(CCOC(=O)NCc1ccc(COc2nc(N)nc3[nH]cnc23)cc1)c1ccc(/C=C(\C#N)c2nc3ccccc3o2)cc1 [probe 2]
18 | 532 | 399 | 0.0019 | 139 | 0.27 | CN(CCOC(=O)NCc1ccc(COc2nc(N)nc3[nH]cnc23)cc1)c1ccc(/C=C(\C#N)c2nc3ccccc3s2)cc1 [probe 3]
19 | 480 | 562 | <0.001 | 490 | 0.35 | CN(CCOC(=O)NCc1ccc(COc2cc(Cl)nc(N)n2)cc1)c1ccc(/C=C(\C#N)C(=O)OC(C)(C)C)cc1 [probe 4]
20 | 555 | 790 | <0.001 | 1174 | 0.15 | CN(CCOC(=O)NCc1ccc(COc2cc(Cl)nc(N)n2)cc1)c1ccc(/C=C(\C#N)c2nc3ccccc3o2)cc1 [probe 5]
